Data: ChEMBL document CHEMBL3885881, “DrugMatrix”

Key:
[1] = species on record: Rattus norvegicus; test: DrugMatrix - Regimen: Daily Repeat; assay type: toxicity, organism-based, Sprague-Dawley; parameters: regimen Daily Repeat, gender Male, age 6-8 weeks; details: in vivo, po, 1868 mg/kg, […], route oral GAVAGE, dose level High, vehicle .5 % CMC; for ALANINE AMINOTRANSFERASE / ALBUMIN / ALKALINE PHOSPHATASE / ASPARTATE AMINOTRANSFERASE / BLOOD UREA NITROGEN / CARBON DIOXIDE / CHLORIDE / CHOLESTEROL / CREATININE / GLUCOSE / LACTATE DEHYDROGENASE / LIPASE / PHOSPHORUS / POTASSIUM / SODIUM / TOTAL BILIRUBIN / TOTAL PROTEIN / URIC ACID: tissue Plasma
[2] = species on record: Rattus norvegicus; assay type: toxicity, organism-based, Sprague-Dawley; details: in vivo, po, 1868 mg/kg, 24 h, route oral GAVAGE, dose level High, time 1 day, vehicle .5 % CMC
Description: DrugMatrix - Regimen: Single

CC(=O)OCc1ccccc1 [E1501]
PLATELET COUNT ([1]; tissue Blood, time 11 day): 822 x10E3/uL
ABSOLUTE BASOPHIL ([1]; tissue Blood, time 14 day): 0 CELLS/uL
ABSOLUTE EOSINOPHIL ([1]; tissue Blood, time 14 day): 388 CELLS/uL
ABSOLUTE LYMPHOCYTE ([1]; tissue Blood, time 14 day): 14397 CELLS/uL
ABSOLUTE MONOCYTE ([1]; tissue Blood, time 14 day): 529.5 CELLS/uL
ABSOLUTE SEGMENTED NEUTROPHIL ([1]; tissue Blood, time 14 day): 1785.5 CELLS/uL
BASOPHIL ([1]; tissue Blood, time 14 day): 0%
EOSINOPHIL ([1]; tissue Blood, time 14 day): 2%
ERYTHROCYTE COUNT ([1]; tissue Blood, time 14 day): 6.34 x10E6/uL
HEMATOCRIT ([1]; tissue Blood, time 14 day): 38%
HEMOGLOBIN ([1]; tissue Blood, time 14 day): 13.85 G/DL
LEUKOCYTE COUNT ([1]; tissue Blood, time 14 day): 17.1 x10E3/uL
LYMPHOCYTE ([1]; tissue Blood, time 14 day): 85%
MEAN CORPUSCULAR HEMOGLOBIN ([1]; tissue Blood, time 14 day): 21.9 pg
MEAN CORPUSCULAR HEMOGLOBIN CONCENTRATION ([1]; tissue Blood, time 14 day): 36.35 G/DL
MEAN CORPUSCULAR VOLUME ([1]; tissue Blood, time 14 day): 60.15 fL
MONOCYTE ([1]; tissue Blood, time 14 day): 3.5%
NEUTROPHIL ([1]; tissue Blood, time 14 day): 9.5%
NUCLEATED RED BLOOD CELLS ([1]; tissue Blood, time 14 day): 0 /100WBC
PLATELET COUNT ([1]; tissue Blood, time 14 day): 722 x10E3/uL
ALANINE AMINOTRANSFERASE ([1]; time 11 day): 128 u/L
ALBUMIN ([1]; time 11 day): 3.9 G/DL
ALKALINE PHOSPHATASE ([1]; time 11 day): 284 u/L
ASPARTATE AMINOTRANSFERASE ([1]; time 11 day): 640 u/L
BLOOD UREA NITROGEN ([1]; time 11 day): 44 mg/dL
CARBON DIOXIDE ([1]; time 11 day): 31 mmol/L
CHLORIDE ([1]; time 11 day): 95 MEQ/L
CHOLESTEROL ([1]; time 11 day): 70 mg/dL
CREATININE ([1]; time 11 day): 0.26 mg/dL
GLUCOSE ([1]; time 11 day): 191 mg/dL
LACTATE DEHYDROGENASE ([1]; time 11 day): 656 u/L
LIPASE ([1]; time 11 day): 9 u/L
PHOSPHORUS ([1]; time 11 day): 14.5 mg/dL
POTASSIUM ([1]; time 11 day): 4.9 MEQ/L
SODIUM ([1]; time 11 day): 146.3 MEQ/L
TOTAL BILIRUBIN ([1]; time 11 day): 0.1 mg/dL
TOTAL PROTEIN ([1]; time 11 day): 5.4 G/DL
URIC ACID ([1]; time 11 day): 1.7 mg/dL
ALANINE AMINOTRANSFERASE ([1]; time 14 day): 76.5 u/L
ALBUMIN ([1]; time 14 day): 4.3 G/DL
ALKALINE PHOSPHATASE ([1]; time 14 day): 267 u/L
ASPARTATE AMINOTRANSFERASE ([1]; time 14 day): 238 u/L
BLOOD UREA NITROGEN ([1]; time 14 day): 19 mg/dL
CARBON DIOXIDE ([1]; time 14 day): 21.5 mmol/L
CHLORIDE ([1]; time 14 day): 102.5 MEQ/L
CHOLESTEROL ([1]; time 14 day): 79 mg/dL
CREATININE ([1]; time 14 day): 0.27 mg/dL
GLUCOSE ([1]; time 14 day): 207 mg/dL
LACTATE DEHYDROGENASE ([1]; time 14 day): 251.5 u/L
LIPASE ([1]; time 14 day): 9 u/L
PHOSPHORUS ([1]; time 14 day): 11.95 mg/dL
POTASSIUM ([1]; time 14 day): 5.28 MEQ/L
SODIUM ([1]; time 14 day): 152.2 MEQ/L
TOTAL BILIRUBIN ([1]; time 14 day): 0.25 mg/dL
TOTAL PROTEIN ([1]; time 14 day): 6.5 G/DL
URIC ACID ([1]; time 14 day): 1.95 mg/dL
ABSOLUTE EOSINOPHIL ([2]; tissue Blood): 109.33 CELLS/uL
ABSOLUTE LYMPHOCYTE ([2]; tissue Blood): 12916.67 CELLS/uL
ABSOLUTE MONOCYTE ([2]; tissue Blood): 245.33 CELLS/uL
ABSOLUTE SEGMENTED NEUTROPHIL ([2]; tissue Blood): 1062 CELLS/uL
BASOPHIL ([2]; tissue Blood): 0%
EOSINOPHIL ([2]; tissue Blood): 0.67%
ERYTHROCYTE COUNT ([2]; tissue Blood): 5.87 x10E6/uL
HEMATOCRIT ([2]; tissue Blood): 35.33%
HEMOGLOBIN ([2]; tissue Blood): 12.87 G/DL
LEUKOCYTE COUNT ([2]; tissue Blood): 14.33 x10E3/uL
LYMPHOCYTE ([2]; tissue Blood): 90.67%
MEAN CORPUSCULAR HEMOGLOBIN ([2]; tissue Blood): 21.93 pg
MEAN CORPUSCULAR HEMOGLOBIN CONCENTRATION ([2]; tissue Blood): 36.4 G/DL
MEAN CORPUSCULAR VOLUME ([2]; tissue Blood): 60.27 fL
MONOCYTE ([2]; tissue Blood): 1.67%
NEUTROPHIL ([2]; tissue Blood): 7%
NUCLEATED RED BLOOD CELLS ([2]; tissue Blood): 0 /100WBC
PLATELET COUNT ([2]; tissue Blood): 831 x10E3/uL
ALANINE AMINOTRANSFERASE ([2]; tissue Plasma): 51 u/L
ALBUMIN ([2]; tissue Plasma): 4.13 G/DL
ALKALINE PHOSPHATASE ([2]; tissue Plasma): 348.67 u/L
ASPARTATE AMINOTRANSFERASE ([2]; tissue Plasma): 87 u/L
BLOOD UREA NITROGEN ([2]; tissue Plasma): 12.33 mg/dL
CARBON DIOXIDE ([2]; tissue Plasma): 26 mmol/L
CHLORIDE ([2]; tissue Plasma): 101.67 MEQ/L
CHOLESTEROL ([2]; tissue Plasma): 53 mg/dL
CREATININE ([2]; tissue Plasma): 0.24 mg/dL
GLUCOSE ([2]; tissue Plasma): 189 mg/dL
LACTATE DEHYDROGENASE ([2]; tissue Plasma): 338.67 u/L
LIPASE ([2]; tissue Plasma): 10 u/L
PHOSPHORUS ([2]; tissue Plasma): 14.53 mg/dL
POTASSIUM ([2]; tissue Plasma): 6.76 MEQ/L
SODIUM ([2]; tissue Plasma): 145.77 MEQ/L
TOTAL BILIRUBIN ([2]; tissue Plasma): 0.13 mg/dL
TOTAL PROTEIN ([2]; tissue Plasma): 6.1 G/DL
URIC ACID ([2]; tissue Plasma): 2.13 mg/dL
